According to patent US8877741B2, “Pyrrolidine derivatives, pharmaceutical compositions and uses thereof” (Boehringer Ingelheim International GmbH, priority 2013, dated 2014):

molecular target: human ACC2 (Homo sapiens (Human), UniProt O00763); assay: ACC2 assay, spectrophotometric 384 well assay (NADH-linked kinetic method); format: biochemical; conditions: human ACC2 construct lacking the 128 N-terminal amino acids; coupled lactate dehydrogenase/pyruvate kinase reaction, 340 nm, 25° C.
Method: Spectrophotometric 384 Well Assay
Malonyl CoA formation by acetyl CoA carboxylases is stoichometrically linked to the consumption of ATP. ACC2 activity is measured in a NADH-linked kinetic method measuring ADP generated during the ACC reaction using a coupled lactate dehydrogenase/pyruvate kinase reaction.
For biological testing, a human ACC2 construct which lacks the 128 amino acids at the N-terminus for increased solubility (nt 385-6966 in Genbank entry AJ575592) is cloned. The protein is then expressed in insect cells using a baculoviral expression system. Protein purification is performed by anion exchange.
All compounds are dissolved in dimethyl sulfoxide (DMSO) to a concentration of 10 mM.
The enzymatic reaction is then started by addition of a mixture of NADH, acetyl Coenzyme A (both 2000 μM f.c.) and ATP (500 uM f.c.). The decrease of the optical density (slope S) is then determined at 25° C. at a wavelength of 340 nm over 15 minutes in a spectrophotometric reader.
Each assay microtiter plate contains wells with vehicle instead of compound as controls for the non-inhibited enzyme (100% CTL; ‘HIGH’) and wells without acetyl-CoA as controls for non-specific NADH degradation (0% CTL; ‘LOW’).
The slope S is used for calculation of % CTL=(S(compound)−S(‘LOW’))/(S(‘HIGH’)−S(‘LOW’))*100.
For IC50 value determination, the sample slope in the presence of the test compound after subtraction of the low controls (S(compound)−S(‘LOW’)) are used.
An IC50 value is derived from the compound slopes at different dosages after subtraction of the low controls (S(compound)−S(‘LOW’)) by non-linear regression curve fitting (equation y=(A+((B−A)/(1+((C/x)^D))))).

Chain of human ACC2 (O00763 129-2458): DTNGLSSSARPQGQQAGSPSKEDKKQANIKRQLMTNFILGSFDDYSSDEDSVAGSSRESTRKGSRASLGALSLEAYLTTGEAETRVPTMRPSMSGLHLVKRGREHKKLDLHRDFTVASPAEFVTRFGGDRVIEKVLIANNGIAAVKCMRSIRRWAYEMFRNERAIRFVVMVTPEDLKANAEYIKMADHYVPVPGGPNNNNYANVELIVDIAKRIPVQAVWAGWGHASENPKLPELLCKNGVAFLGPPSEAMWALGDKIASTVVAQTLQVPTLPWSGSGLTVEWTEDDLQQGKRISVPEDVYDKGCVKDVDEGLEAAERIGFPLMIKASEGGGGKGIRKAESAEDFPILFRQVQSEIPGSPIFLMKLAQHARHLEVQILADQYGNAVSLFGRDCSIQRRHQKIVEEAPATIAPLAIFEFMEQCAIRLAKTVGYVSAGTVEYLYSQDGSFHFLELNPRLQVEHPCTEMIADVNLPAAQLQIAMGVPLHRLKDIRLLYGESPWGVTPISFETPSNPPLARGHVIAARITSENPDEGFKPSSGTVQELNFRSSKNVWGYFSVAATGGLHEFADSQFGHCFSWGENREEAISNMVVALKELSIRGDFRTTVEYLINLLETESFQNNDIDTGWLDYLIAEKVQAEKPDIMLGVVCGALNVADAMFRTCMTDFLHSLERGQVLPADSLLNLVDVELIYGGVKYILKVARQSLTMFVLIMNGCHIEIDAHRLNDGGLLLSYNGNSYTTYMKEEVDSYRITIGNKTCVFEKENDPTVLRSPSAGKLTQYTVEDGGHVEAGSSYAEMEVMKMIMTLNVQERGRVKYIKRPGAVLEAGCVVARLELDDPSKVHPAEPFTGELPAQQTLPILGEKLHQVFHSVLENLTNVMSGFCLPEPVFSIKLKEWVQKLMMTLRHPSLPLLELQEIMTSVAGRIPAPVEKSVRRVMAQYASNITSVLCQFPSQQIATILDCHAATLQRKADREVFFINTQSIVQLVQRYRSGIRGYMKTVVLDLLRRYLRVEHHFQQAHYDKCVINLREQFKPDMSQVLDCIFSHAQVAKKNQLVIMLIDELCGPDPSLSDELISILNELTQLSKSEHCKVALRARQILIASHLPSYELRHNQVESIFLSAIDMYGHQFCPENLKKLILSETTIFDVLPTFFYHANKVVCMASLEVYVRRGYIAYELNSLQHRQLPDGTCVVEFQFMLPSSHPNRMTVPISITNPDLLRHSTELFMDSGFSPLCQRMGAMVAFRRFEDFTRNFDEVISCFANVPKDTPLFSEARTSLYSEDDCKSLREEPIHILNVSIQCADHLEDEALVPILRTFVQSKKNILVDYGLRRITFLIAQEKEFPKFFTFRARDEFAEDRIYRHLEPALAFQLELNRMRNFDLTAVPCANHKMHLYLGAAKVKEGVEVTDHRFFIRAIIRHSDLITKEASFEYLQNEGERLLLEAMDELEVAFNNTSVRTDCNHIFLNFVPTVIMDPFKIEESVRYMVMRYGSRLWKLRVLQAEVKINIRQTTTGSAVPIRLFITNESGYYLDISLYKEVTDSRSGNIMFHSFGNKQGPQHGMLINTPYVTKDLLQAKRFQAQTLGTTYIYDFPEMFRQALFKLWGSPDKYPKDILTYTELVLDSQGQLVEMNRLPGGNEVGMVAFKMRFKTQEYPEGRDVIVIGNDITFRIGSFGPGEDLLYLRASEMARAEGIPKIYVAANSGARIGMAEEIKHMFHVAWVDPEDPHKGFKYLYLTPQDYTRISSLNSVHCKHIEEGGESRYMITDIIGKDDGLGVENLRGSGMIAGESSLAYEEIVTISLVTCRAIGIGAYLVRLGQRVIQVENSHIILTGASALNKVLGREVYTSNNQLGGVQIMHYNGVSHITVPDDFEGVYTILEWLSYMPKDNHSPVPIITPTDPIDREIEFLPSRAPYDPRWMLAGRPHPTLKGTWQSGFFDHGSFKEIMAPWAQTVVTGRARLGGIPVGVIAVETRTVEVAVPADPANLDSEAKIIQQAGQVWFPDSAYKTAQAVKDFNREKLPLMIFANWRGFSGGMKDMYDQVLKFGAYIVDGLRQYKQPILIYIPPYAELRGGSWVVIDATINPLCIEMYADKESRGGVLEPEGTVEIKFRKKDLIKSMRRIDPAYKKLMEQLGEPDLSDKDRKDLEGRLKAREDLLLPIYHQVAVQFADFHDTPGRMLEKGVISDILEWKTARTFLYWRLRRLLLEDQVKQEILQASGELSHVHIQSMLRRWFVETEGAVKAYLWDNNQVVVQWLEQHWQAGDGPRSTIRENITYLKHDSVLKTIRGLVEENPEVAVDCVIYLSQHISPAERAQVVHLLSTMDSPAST

IC50 [nM] | SMILES
220 | CC(=O)N[C@@H](C)c1ccc(O[C@@H]2CCN(c3ccnc(OCC(C)O)c3F)C2)cc1 (stereo partly shown) [Example 9.74]
330 | CC(=O)N[C@@H](C)c1ccc(O[C@@H]2CCN(c3ccnc(OC(C)c4ccccc4)c3)C2)cc1 (stereo partly shown) [Example 9.19]
153 | CC(=O)N[C@@H](C)c1ccc(O[C@@H]2CCN(c3cccc(N4CCCC4)n3)C2)cc1 [Example 10.3]
59 | CC(=O)N[C@@H](C)c1ccc(O[C@@H]2CCN(c3ccnc(OCC(C)(F)F)c3Cl)C2)cc1 [Example 9.77]
42 | CC(=O)N[C@@H](C)c1ccc(O[C@@H]2CCN(c3ccnc(OCC4CC4)c3F)C2)cc1 [Example 9.51]
385 | CCCOc1cc(N2CC[C@@H](Oc3ccc([C@H](C)NC(=O)C4CC4)cc3)C2)ccn1 [Example 9.37]
256 | CC(=O)N[C@@H](C)c1ccc(O[C@@H]2CCN(c3cccc(N4CCC(C)(C)C4)n3)C2)cc1 [Example 10.48]
215 | CC(=O)N[C@@H](C)c1ccc(O[C@@H]2CCN(c3ccnc(NCC(C)(C)O)c3F)C2)cc1 [Example 10.53]
639 | CO[C@@H](C)COc1cc(N2CC[C@@H](Oc3ccc([C@H](C)NC(C)=O)cc3)C2)ccn1 [Example 9.44]
114 | CCOc1nccc(N2CC[C@@H](Oc3ccc([C@H](C)NC(C)=O)cc3)C2)c1Cl [Example 9.76]
97 | CC(=O)N[C@@H](C)c1ccc(O[C@@H]2CCN(c3ccnc(N(C)C)c3F)C2)cc1 [Example 10.17]
75 | CC(=O)N[C@@H](C)c1ccc(O[C@@H]2CCN(c3ccnc(OCCC4CC4)c3)C2)cc1 [Example 9.14]
544 | CCC(COC)Oc1cc(N2CC[C@@H](Oc3ccc([C@H](C)NC(C)=O)cc3)C2)ccn1 (stereo partly shown) [Example 9.46]
305 | CC(=O)N[C@@H](C)c1ccc(O[C@@H]2CCN(c3ccnc(OCC(C)(C)O)c3)C2)cc1 [Example 9.32]
90 | CC(=O)N[C@@H](C)c1ccc(O[C@@H]2CCN(c3ccnc(OCc4ccc(F)cc4)c3)C2)cc1 [Example 9.6]
402 | CC(=O)N[C@@H](C)c1ccc(O[C@@H]2CCN(c3ccnc(OCc4cccnc4)c3)C2)cc1 [Example 9.30]
1020 | COC[C@H]1CCCN1c1cccc(N2CC[C@@H](Oc3ccc([C@H](C)NC(C)=O)cc3)C2)n1 [Example 10.41]
455 | CC(=O)N[C@@H](C)c1ccc(O[C@@H]2CCN(c3cccc(N4CCC(C)(O)C4)n3)C2)cc1 (stereo partly shown) [Example 10.47]
500 | CC(=O)N[C@@H](C)c1ccc(O[C@@H]2CCN(c3ccnc(O[C@@H]4CCC[C@@H]4O)c3)C2)cc1 [Example 9.45]
594 | CC(=O)N[C@@H](C)c1ccc(O[C@@H]2CCN(c3nc(N4CCCC4)c(F)cc3F)C2)cc1 [Example 10.8]
369 | CC(=O)N[C@@H](C)c1ccc(O[C@@H]2CCN(c3cccc(N4CCOC(C)(C)C4)n3)C2)cc1 [Example 10.38]

Second part, the molecule before the results:

SMILES | IC50 [nM]
C[C@H](NC(=O)c1cnco1)c1ccc(OC2CCN(c3ccc(OC[C@H]4CC4(F)F)cn3)C2)cc1 (stereo partly shown) [Example 2.92] | 110
Cc1[nH]ncc1C(=O)N[C@@H](C)c1ccc(OC2CCN(c3ccnc(OCC(F)F)c3)C2)cc1 (stereo partly shown) [Example 2.98] | 282
CC(=O)Nc1nc(C)c(C(=O)N[C@@H](C)c2ccc(OC3CCN(c4ccc(OC[C@H]5CC5(F)F)cn4)C3)cc2)s1 (stereo partly shown) [Example 2.90] | 9
CC(=O)N[C@@H](C)c1ccc(O[C@@H]2CCN(c3ccnc(NCC4CC4)c3F)C2)cc1 [Example 1.114] | 43
COc1c(N2CC[C@@H](Oc3ccc([C@H](C)NC(C)=O)cc3)C2)ccnc1OCC(C)(C)OC [Example 1.149] | 156
CC(=O)NC1CCN(C(=O)N[C@@H](C)c2ccc(OC3CCN(c4ccc(OCC5CC5(F)F)cn4)C3)cc2)CC1 (stereo partly shown) [Example 3.11] | 314
CCC(C)Oc1ccc(N2CCC(Oc3ccc([C@H](C)NC(C)=O)cc3)C2)nc1 (stereo partly shown) [Example 1.28] | 245
C[C@H](NC(=O)C(F)F)c1ccc(OC2CCN(c3cccc(C(F)(F)F)n3)C2)cc1 (stereo partly shown) [Example 2.32] | 120
CC(C)Oc1cc(N2CCC(Oc3ccc([C@H](C)NC(=O)C4CCC4)cc3)C2)ccn1 (stereo partly shown) [Example 2.25] | 564
C[C@H](NC(=O)C(F)(F)C(F)(F)F)c1ccc(O[C@@H]2CCN(c3cccc(C(F)(F)F)n3)C2)cc1 [Example 7.1, 2,2,3,3,3-Pentafluoro-N—((S)-1-(4-((R)-1-(6-(trifluoromethyl)pyridin-2-yl)pyrrolidin-3-yloxy)phenyl)ethyl)propanamide] | 400
COC(=O)N[C@@H](C)c1ccc(OC2CCN(c3ccnc(OCC4CC4(F)F)c3F)C2)cc1 (stereo partly shown) [Example 4.6] | 68
Cc1nc(N)sc1C(=O)N[C@@H](C)c1ccc(O[C@@H]2CCN(c3ccc(OCC4CC4(F)F)cn3)C2)cc1 (stereo partly drawn) [Example 13, 2-Amino-N—((1S)-1-(4-((3R)-1-(5-((2,2-difluorocyclopropyl)methoxy)pyridin-2-yl)pyrrolidin-3-yloxy)phenyl)ethyl)-4-methylthiazole-5-carboxamide] | 240
CC(=O)N[C@@H](C)c1ccc(O[C@@H]2CCN(c3ccnc(N4CCC(F)(F)C4)c3Cl)C2)cc1 [Example 1.132] | 41
C[C@H](NC(=O)c1cnc(N)o1)c1ccc(OC2CCN(c3ccnc(OCC4CC4)c3)C2)cc1 (stereo partly shown) [Example 2.74] | 359
Cc1[nH]ncc1C(=O)N[C@@H](C)c1ccc(OC2CCN(c3ccc(OCC4CC4(F)F)cn3)C2)cc1 (stereo partly shown) [Example 2.118] | 169
C[C@H](NC(=O)C(F)F)c1ccc(OC2CCN(c3ccnc(OCC4CC4)c3)C2)cc1 (stereo partly shown) [Example 2.81] | 35
CC(=O)Nc1nc(C)c(C(=O)N[C@@H](C)c2ccc(O[C@@H]3CCN(c4cccc(C(F)(F)F)n4)C3)cc2)s1 [Example 1.45] | 64
COc1c(N2CC[C@@H](Oc3ccc([C@H](C)NC(C)=O)cc3)C2)ccnc1OCCC1CC1 [Example 1.139] | 37
Cc1nocc1C(=O)N[C@@H](C)c1ccc(OC2CCN(c3cccc(C(F)(F)F)n3)C2)cc1 (stereo partly shown) [Example 2.43] | 57
CC(=O)N[C@@H](C)c1ccc(O[C@@H]2CCN(c3ccc(OCC4CC4)cn3)C2)cc1 [Example 1.96] | 114

SMILES | IC50 [nM]
COc1cnc(N2CC[C@@H](Oc3ccc([C@H](C)NC(C)=O)cc3)C2)c(Cl)c1 [Example 8.10] | 693
CNC(=O)N[C@@H](C)c1ccc(OC2CCN(c3ccnc(OCC(F)F)c3)C2)cc1 (stereo partly shown) [Example 3.14] | 238
CCCOc1ccc(N2CC[C@@H](Oc3ccc([C@H](C)NC(C)=O)cc3)C2)c(OC)n1 [Example 1.130] | 233
CCOc1cnc(N2CCC(Oc3ccc([C@H](C)NC(C)=O)cc3)C2)c(C)c1 (stereo partly shown) [Example 1.52] | 474
CC(=O)N[C@@H](C)c1ccc(OC2CCN(c3ccc(OCCC(F)(F)F)cn3)C2)cc1 (stereo partly shown) [Example 1.29] | 130
CC(=O)N[C@@H](C)c1ccc(OC2CCN(c3cc(OCC4CC4(F)F)ncc3C)C2)cc1 (stereo partly shown) [Example 1.89] | 278
CC(=O)N[C@@H](C)c1ccc(OC2CCN(c3ncc(OCC4CC4)cc3F)C2)cc1 (stereo partly shown) [Example 1.7] | 137
C[C@H](NC(=O)N(C)C)c1ccc(OC2CCN(c3cccc(C(F)(F)F)n3)C2)cc1 (stereo partly shown) [Example 5.2] | 90
C[C@H](NC(=O)Nc1ccon1)c1ccc(O[C@@H]2CCN(c3ccc(OCC4CC4(F)F)cn3)C2)cc1 (stereo partly drawn) [Example 3.1, 1-((1S)-1-(4-((3R)-1-(5-((2,2-Difluorocyclopropyl)methoxy)pyridin-2-yl)pyrrolidin-3-yloxy)phenyl)ethyl)-3-(isoxazol-3-yl)urea] | 81
CC(=O)N[C@@H](C)c1ccc(OC2CCN(c3ncc(OC(C)C)cc3F)C2)cc1 (stereo partly shown) [Example 1.22] | 104
CC(C)Oc1cc(N2CCC(Oc3ccc([C@H](C)NC(=O)C(C)C#N)cc3)C2)ccn1 (stereo partly shown) [Example 2.23] | 970
CCCNc1nccc(N2CC[C@@H](Oc3ccc([C@H](C)NC(C)=O)cc3)C2)c1F [Example 1.107] | 52
CC(C)Oc1cc(N2CCC(Oc3ccc([C@H](C)NC(=O)c4cn[nH]c4)cc3)C2)ccn1 (stereo partly shown) [Example 2.8] | 65
CCOc1nccc(N2CC[C@@H](Oc3ccc([C@H](C)NC(C)=O)cc3)C2)c1OC [Example 1.95] | 82
C[C@H](NC(=O)c1cnco1)c1ccc(OC2CCN(c3ccnc(OCC(F)F)c3)C2)cc1 (stereo partly shown) [Example 2.111] | 107
CC(=O)N[C@@H](C)c1ccc(OC2CCN(c3ccc(OCC(C)C)cn3)C2)cc1 (stereo partly shown) [Example 1.8] | 375
CC(=O)N[C@@H](C)c1ccc(OC2CCN(c3ccnc(Oc4cccnc4)c3)C2)cc1 (stereo partly shown) [Example 1.68] | 354
C[C@H](NC(=O)CO)c1ccc(OC2CCN(c3ccnc(OCC(F)F)c3)C2)cc1 (stereo partly shown) [Example 2.115] | 869
C[C@H](NC(=O)C1(C(F)(F)F)CC1)c1ccc(OC2CCN(c3cccc(C(F)(F)F)n3)C2)cc1 (stereo partly shown) [Example 2.37] | 247
CC(=O)N[C@@H](C)c1ccc(OC2CCN(c3ccnc(OCC4CC4)c3)C2)cc1 (stereo partly shown) [Example 1.15] | 60
